{"source": "paper PMC13430218", "about": "(Clinical Cancer Research, 2026)", "experiment": "Plasma pharmacokinetics of rogocekib, LC-MS/MS, noncompartmental", "type": "in vivo, human", "method": "For other patients in the expansion cohort, peripheral blood samples were collected before and after the dose at 2 and 6 hours on day 1 of cycle 1, and before dose of day 1 in cycles 2 and 4.\nDescriptive statistics such as medians, standard deviations, and ranges were calculated. The Kaplan–Meier method was utilized for OS and PFS analysis. PK/PD parameters were assessed using a noncompartmental approach. Exploratory biomarkers were assessed through descriptive statistics.", "data": [{"smiles": "COc1ncnn2ccc(-c3cnc4nc(C)n(Cc5nnc([C@@H](C)F)o5)c4c3)c12", "note": "[rogocekib, Rogocekib]", "values": [{"measurement": "Tmax, median (min, max)", "setting": "Cohort A 10 mg twice weekly, n = 1, cycle 1 day 1, oral", "value": "2 (2, 2) hours"}, {"measurement": "AUC0–24 hours, geometric mean (%CV)", "setting": "Cohort A 140 mg twice weekly, n = 6, cycle 1 day 1, oral", "value": "5,823.618 (22.2) hours·ng/mL"}]}]}
